We go through eight molecules from patent publication US11213512B2, “Bis-amino acid based compound and use thereof” (THE CURATORS OF THE UNIVERSITY OF MISSOURI, priority 2016, dated 2022).

As usually defined, the melting point is the temperature, or range, at which the solid turns liquid.

Where two headings read alike, the source gives them in different places.

Data set [1] relates to Tet^R E. coli. The data set can be described thus: MIC, CLSI/NCCLS broth microdilution. It is filed as cell-based, Escherichia coli. Conditions: 24 h; for MIC: Escherichia coli, read-out: Minimal Inhibitory Concentration (MIC) E. coli Tet^R; for Minimal Inhibitory Concentration (MIC) E. coli Tet^R: >80% growth inhibition, 37° C., substance alone. Here is the method: (§1) Two different strains of E. coli (Gram-negative) were used. The laboratory strain of E. coli, K-12 (ATCC Accession No. 700926), was used for preliminary MIC determinations. The tetracycline resistant strain of E. coli (Tet^R) was prepared by transforming competent JM109 E. coli (Promega) with the pBR322 plasmid (Carolina Biologicals) using the manufacturers protocol. This plasmid contains two resistance genes: the tetA gene expresses the tetracycline resistance TetA efflux pump (Sapunaric and Levy, Microbiol. 2005, 151, 2315-2322) and the amp^R gene expresses a β-lactamase enzyme (Bolivar, et al; Gene 1977, 2, 95-113) that cleaves the four membered ring of penicillin derivatives. The resulting E. coli, which we designate Tet^R E. coli, is both tetracycline and ampicillin resistant. The TetA efflux pump belongs to the major facilitator superfamily (MFS), spans the cytoplasmic membrane, and transports tetracycline from the cell cytoplasm to the periplasmic space (Thanassi, et al., J. Bacteriol. 1995, 177, 998-1007). This active efflux utilizes the proton gradient as an energy source (Levy, Antimicrob. Agents Chemother. 1992, 36, 695-703). One Gram-positive strain, S. aureus (ATCC Accession No. 29213), used for MIC study expresses the MFS type NorA efflux pump and is methicillin sensitive. MFS type efflux pumps are clinically relevant for resistance in both Gram-positive and Gram-negative bacteria (Sun, et al., Biochem. Biophys. Res. Commun. 2014, 453, 254-267). A Staphylococcus aureus 1199B strain that overexpresses the NorA efflux pump was also used to conduct checkerboard experiments (see, Example 8 below). This strain of S. aureus 1199B is resistant to both norfloxacin and ethidium bromide.
(§2) K-12 E. coli and S. aureus were acquired from ATCC. The S. aureus strain was used in the BSL-2 facility. K-12 E. coli was grown in L. B. Miller media (Sigma-Aldrich) and S. aureus was grown in cation adjusted MHII media (Sigma-Aldrich). Tet^R E. coli was grown in L. B. Miller media containing 100 μg/mL Ampicillin.
(§3) MIC experiments were performed as described in the Clinical and Laboratory Standards Institute (CLSI) standard microdilution protocols. Bacteria was grown overnight from one CFU in media without antibiotics. Tet^R E. coli was grown in media containing 100 μg/mL Ampicillin. On the day of experiment, bacteria were knocked back to O.D. 600 nm=0.550 in the same media. These exponential phase bacteria were then diluted in antibiotics-free media to get […]. In a 96-well plate either L. B. Miller or MHII media was added followed by serially diluted compounds 1-11, tetracycline, or ampicillin. All the tryptophan based compounds were dissolved in DMSO and the final concentration of DMSO in each well was kept constant at 0.5% (v/v).
(§4) For the combination experiments, first, the BT or control was added to the media in the well followed by the antibiotics. The contents of the well were mixed before adding 20 μL of bacteria to get 4×10^5 CFU/mL per well. The plates were incubated at 37° C., 200 RPM for 24 hours before collecting results on the Biotek Cytation 3 plate reader. No more than three plates were stacked on top of each other at a time. Optical density of the wells was determined at λ=600 nm. Cells alone were considered as 0% inhibition and media alone was considered as 100% inhibition. Any inhibition greater than 80% was considered as the MIC. The results were reproduced three times before reporting.
(§5) All minimum inhibitory concentration (MIC) values for compounds 1-11 were determined according to the methods prescribed by the National Committee for Clinical Laboratory Standards (NCCLS, Methods for Dilution Antimicrobial Susceptibility Tests for Bacteria that grow aerobically; National Committee for Clinical Laboratory Standards 2000, 5th Edition, M7-A5). […]
(Dilution methods test growth across graded concentrations, often in twofold steps.)

In a further data set the test system is E. coli K12. Put plainly: MIC, CLSI/NCCLS broth microdilution. Type of data set: cell-based, Escherichia coli. The conditions noted are these: read-out: Minimal Inhibitory Concentration (MIC) E. coli K12. On the procedure:
as §1, §2, §3, §4, §5

The test system of data set [2] is S. aureus (ATCC Accession No. 29213). The data set can be described thus: MIC, CLSI/NCCLS broth microdilution. It is filed as cell-based, Staphylococcus aureus. The conditions noted are these: read-out: Minimal Inhibitory Concentration (MIC) S. aureus. Here is the method: as §1, §2, §3, §4, §5
The subject of data set [3] is Tet^R E. coli. The data set can be described thus: Membrane permeability and viability, confocal microscopy (propidium iodide / fluorescein diacetate). It is filed as cell-based, Escherichia coli. The conditions noted are these: 0.1% (~1,670 μM) control detergent. Here is the method:
To test the membrane permeability of the Tet^R E. coli, the bacteria was first grown overnight from one CFU in media containing 100 μg/mL Ampicillin at 37° C. and 200 RPM. Tet^R E. coli was then knocked back to O.D. 600 nm=0.550 before use. In a sterile test tube, cells were added followed by either compounds 2 or 10 at half-MIC concentrations and incubated at 37° C. and 200 RPM. The concentration of DMSO was kept constant at 0.5% —by volume in each case. After 30 minutes of incubation, the cells were washed by centrifugation at 3000×g for 5 minutes and re-suspended in sterile phosphate buffered saline (PBS). Propidium iodide (30 μM, Thermo-Fischer) and fluorescein diacetate (60 μM, Sigma-Aldrich) were added to the Tet^R E. coli cells in the PBS, mixed by vortexing and incubated at 37° C. and 200 RPM. After 30 minutes, the cells were washed again by centrifugation at 3000×g for 5 minutes. The pellet was suspended in a fresh PBS, loaded onto a clean glass slide, covered with a cover slip and observed under Zeiss LSM 700 confocal microscope.
The study was designed to assess the membrane permeability and viability of the E. coli in the presence of BTs 2 and 10. The three panels in FIG. 6 show the bright field (BF) microscopic images (top row), the result when fluorescein diacetate (FDA) is present (middle row), and the presence of propidium iodide (PI, bottom row), if any. […] When it does, it intercalates in DNA, which leads to enhanced fluorescence. Fluorescein diacetate is incorporated into the cells during growth, but is not fluorescent. If the organism is or remains vital, the diester will be hydrolyzed and fluorescein will be observed by its fluorescence emission.
Controls for the permeability/viability assay were included for E. coli in the presence of a final concentration of 0.5% (v/v) DMSO (the vehicle for administration of BTs), and a final concentration of 0.1% […] Triton X-100. […] Thus, less than or equal to 0.5% DMSO (v/v) was always used; the control is shown in the second column. Triton X-100 is a potent detergent, which was used at 0.1% or ˜1,670 μM.

A further data set deals with HEK-293 cells. The data set can be described thus: Mammalian cell permeability and vitality, confocal microscopy (propidium iodide / fluorescein diacetate). Type of data set: cell-based, human. Here is the method:
To test the permeability of HEK-293 cells, the cells were cultured in growth medium as described above. HEK-293 (90% confluent) were then seeded in a 96-well plate to get 30,000 cells/well. After 24 hours of incubation at 37° C. and 5% CO2, the spent media was replaced with media (DMEM and 10% FBS) containing compound 2 at either 20 μM or 80 μM. […] Triton X-100 at 0.1%—by volume (1670 μM) and DMSO 0.5% (v/v) were also used as controls. After 2 hours of incubation, spent media was replaced with PBS containing propidium iodide (30 μM) and fluorescein diacetate (60 μM) and incubated at 37° C. and 5% CO2. After 2 hour of incubation, the spend media was replaced with fresh PBS and the cells were observed under Zeiss LSM 700 confocal microscope. The images were reported without any alterations. The gain and the intensity in all the images were kept constant.
A compound that inhibits bacterial growth and penetrates into the microbe's cytosol may also penetrate into mammalian cells. A similar microscopic study was conducted with the human embryonic kidney (HEK-293) cell line. In this case, only compound 2 was studied. […] The microscopic study was therefore conducted at 20 μM, a value well below any inhibitory concentration, and at 80 μM, a concentration above all three MIC values. The 80 μM concentration was used to confirm the […] of 2 and to establish the lack of serum inhibition.

Setting [4] is: Staphylococcus aureus, ATCC29213, 24 h.
[5] abbreviates: >80% growth inhibition, 24 h, 37° C.

For the molecule `CC1(C)S[C@@H]2[C@H](NC(=O)[C@H](N)c3ccccc3)C(=O)N2[C@H]1C(=O)O` [ampicillin, reference compound], the MIC in the data set with Tet^R E. coli [1] is more than 1000 µM.

On to `Cl.Cl.N[C@H](Cc1c[nH]c2ccccc12)C(=O)NCCCCNC(=O)[C@@H](N)Cc1c[nH]c2ccccc12` [Compound 8, (S)-1-((4-((R)-2-Ammonio-3-(1H-indol-3-yl)propanamido)butyl)amino)-3-(1H-indol-3-yl)-1-oxopropan-2-aminium chloride], for which the melting point is 204 °C (dec.). Also, in the data set with Tet^R E. coli [1], the MIC is more than 128 µM. For the same molecule, the MIC with E. coli K12 (Escherichia coli, K12, 24 h) is more than 128 µM. The MIC in data set [2] (setting [4]) is more than 128 µM.

Consider `Cl.Cl.N[C@@H](Cc1c[nH]c2ccccc12)C(=O)NCCCCCCNC(=O)[C@@H](N)Cc1c[nH]c2ccccc12` [Compound 9, (2S,2′S)-1,1′-(Hexane-1,6-diylbis(azanediyl))bis(3-(1H-indol-3-yl)-1-oxopropan-2-aminium) chloride], for which the melting point is 193 °C (dec.). For the same molecule, the MIC with Tet^R E. coli [1] worked out at 128 µM. The MIC with E. coli K12 (Escherichia coli, K12, 24 h) is more than 128 µM. In data set [2] (setting [4]), the MIC was more than 128 µM.

Turning to `CN(C)[C@@H]1C(O)=C(C(N)=O)C(=O)[C@@]2(O)C(O)=C3C(=O)c4c(O)cccc4[C@@](C)(O)[C@H]3C[C@@H]12` [tetracycline, reference compound], in the data set on Tet^R E. coli [1], the “Minimal Inhibitory Concentration (MIC) E. coli Tet^R” value (shortened to “Minimal Inhibitory Concentration”) was determined as 900 µM and the MIC stood at 900 ± 100 µM. In addition, the MIC in the data set with E. coli K12 (Escherichia coli, K12, >80% growth inhibition, 24 h, 37° C.) is approximately 3 µM.

As for `Cl.N[C@@H](Cc1c[nH]c2ccccc12)C(=O)Nc1ccccc1` [Compound 11, (S)-3-(1H-Indol-3-yl)-1-oxo-1-(phenylamino)propan-2-aminium chloride], the “Minimal Inhibitory Concentration” value in the data set on Tet^R E. coli [1] is more than 128 µM. In addition, the MIC was more than 128 µM with Tet^R E. coli [1]; more than 128 µM in the data set on E. coli K12 (setting [5]); more than 128 µM in the data set on E. coli K12 (Escherichia coli, K12, 24 h); more than 128 µM in data set [2] (setting [5]); more than 128 µM in data set [2] (setting [4]).

Turning to `Cl.Cl.NCC(=O)Nc1cccc(NC(=O)CN)c1` [Compound 1, 2,2′-(1,3-Phenylenebis(azanediyl))bis(2-oxoethanaminium) chloride], the melting point was 310 °C (dec.). Moreover, in the data set with Tet^R E. coli [1], the “Minimal Inhibitory Concentration” value was more than 128 µM and the MIC was more than 128 µM. Besides, the MIC in the data set with E. coli K12 (setting [5]) is given as more than 128 µM. For the same molecule, in the data set on E. coli K12 (Escherichia coli, K12, 24 h), the MIC is more than 128 µM. Besides, in data set [2] (setting [5]), the MIC is reported as more than 128 µM. Besides, in data set [2] (setting [4]), the MIC is more than 128 µM.

As to Triton X-100 [reference compound], the “viability (fluorescein diacetate fluorescence)” value with Tet^R E. coli [3] is recorded as “essentially all the cells were killed”. Besides, the “propidium iodide penetration (membrane permeability)” value with HEK-293 cells was “strong signal from propidium iodide”.

`O=C(CCc1c[nH]c2ccccc12)Nc1cccc(NC(=O)CCc2c[nH]c3ccccc23)c1` [Compound 4, N,N′-(1,3-Phenylene)bis(3-(1H-indol-3-yl)propanamide)] showed a melting point of 154 to 156 °C. In the data set on Tet^R E. coli [1], the MIC is more than 128 µM. Besides, in the data set on E. coli K12 (Escherichia coli, K12, 24 h), the MIC was more than 128 µM. Further, in data set [2] (setting [4]), the MIC is more than 128 µM.
